Measurements reported in US20250326793A1, “Novel Peptide and Use Thereof” (Zincure Corp., priority 2022, published 2025).
Non-standard residues stand in square brackets, D forms with d. No end group written: not given here.

Tests used:
[1] = tested on: mutant tau protein aggregates (EGFP-Tau P301L); experiment: Western blot of mutant tau protein aggregates in transfected HEK293T cells treated with bafilomycin; type: cell-based; conditions: 100 nM bafilomycin alone vs controls
[2] = tested on: SOD1 protein aggregates (EGFP-SOD1 G93A); experiment: Western blot of SOD1 protein aggregates in transfected HEK293T cells treated with bafilomycin; type: cell-based; conditions: 100 nM bafilomycin alone vs control
Method: FIG. 2A is the results of a western blot analysis of SOD1 protein expression levels of protein samples obtained 18 h after treatment of HEK293T cells transfected to express SOD1 with either 100 nM bafilomycin alone or in combination with 30 μM of some peptides according to one embodiment of the present invention, to investigate the degradation of SOD1 protein aggregates by treatment with some peptides (ZC303, ZC304, ZC309, ZC311) according to one embodiment of the present invention. FIG. 2B is a graph showing the results of quantification of the relative expression. In FIG. 2B, * indicates a significant difference from the treatment with bafilomycin alone (* p<0.05).
(§1) The present inventors conducted an Western blot analysis to investigate whether some of the peptides (ZC303, ZC304, ZC309, ZC311) comprising the amino acid sequences designated as SEQ ID NO: 1 to 15 could resolve SOD1 aggregates that formed after transient transfection of SOD1 protein into HEK293T cell lines. Specifically, the present inventors transiently transfected EGFP-SOD1 G93A DNA into the HEK293T cell line using Lipofectamine 2000. […] The obtained cell lysate was subjected to protein quantification using BCA protein assay kit (Pierce Biotechnology, USA). […]

[3] = tested on: α-synuclein protein aggregates (EGFP-a-synuclein A53T); experiment: Western blot of α-synuclein protein aggregates in transfected HEK293T cells treated with bafilomycin; type: cell-based; conditions: 100 nM bafilomycin alone vs control
Method: FIG. 4A is the results of a western blot analysis of a-synuclein expression levels of protein samples obtained 18 h after treatment of HEK293T cells transfected to express a-synuclein protein with either 100 nM bafilomycin alone or in combination with 30 μM of some peptides according to one embodiment of the present invention, to investigate the degradation of a-synuclein protein aggregates by treatment with some peptides (ZC303, ZC304, ZC309, ZC311) according to one embodiment of the present invention.
as §1, with “2000. After transfection, the cell lines were incubated in a cell incubator at 37° C., 5% CO2 for 30 h and the culture medium was replaced with Minimum Essential Medium (MEM, Gibco, USA). After a 30 min pre-treatment with 100 nM bafilomycin, 30 μM of peptide was added and incubated for 18 h of post-treatment.” for “2000.”

[4] = tested on: mutant huntingtin protein aggregates (GFP-mHttQ74); experiment: Western blot of mutant huntingtin protein aggregates in transfected HEK293T cells treated with bafilomycin; type: cell-based; conditions: 100 nM bafilomycin alone vs control
Method: FIG. 5 is the results of a Western blot analysis of mutant huntingtin protein expression levels of protein samples obtained 18 h after treatment of HEK293T cells transfected to express mutant huntingtin protein with either 100 nM bafilomycin alone or in combination with 30 μM of some peptides according to one embodiment of the present invention, to investigate the degradation of mutant huntingtin protein aggregates by treatment with some peptides (ZC303, ZC304, ZC309, ZC311) according to one embodiment of the present invention.
as §1, with “2000. After transfection, the cell lines were incubated in a cell incubator at 37° C., 5% CO2 for 30 h and the culture medium was replaced with Minimum Essential Medium (MEM, Gibco, USA). After a 30 min pre-treatment with 100 nM bafilomycin, 30 μM of peptide was added and incubated for 18 h of post-treatment.” for “2000.”

[5] = tested on: H4 cell lines expressing GFP-tagged LC3 (GL-H4); experiment: Autophagic flow blocked by Bafilomycin A-1: LC3-GFP puncta by fluorescence microscopy; type: cell-based; conditions: 100 nM bafilomycin alone, GL-H4 cells
Method: FIGS. 1A and 1B are a series of fluorescence micrographs showing that autophagic flow blocked by Bafilomycin A-1 is restored by the peptides according to one embodiment of the present invention, wherein an H4 cell line (GL-H4) stably overexpressing GFP-LC3 protein was treated with various peptides according to one embodiment of the present invention at a concentration of 20 μM in combination with Bafilomycin, whose LC3-GFP spots were photographed after 12 hours. FIGS. 1C and 1D are graphs showing quantification of the fluorescence intensity of LC3-GFP spots 12 hours after the treatment of the GL-H4 cell line with the peptides according to one embodiment of the present invention in combination with bafilomycin at a concentration of 20 μM. […]
To investigate the effect of the peptides comprising the amino acid sequences designated as SEQ ID NOs: 1 to 15 on autophagic flow, the present inventors treated H4 cell lines expressing GFP-tagged LC3 (GL-H4) with MEM and then used the above peptides (20 μM) and the autophagy inhibitor Bafilomycin A-1, Baf A1, 100 nM) to inhibit autophagy. Later, the effect of the peptides according to one embodiment of the present invention was investigated by fluorescence microscopy analysis. […]

[6] = tested on: P-Tau S214, P-Tau T205, unphosphorylated tau, p62, LC3, β-amyloid (APP); experiment: Western blot of aggregate-forming proteins in cerebral cortex and hippocampus of Alzheimer's model animals; type: in vivo; conditions: 5XFAD mice, 20 mg/kg IP, 25 weeks
Text: Based on the results of Experimental example 7-2 above, the present inventors investigated the expression of pathogenic aggregate-forming proteins such as tau protein, p62, and LC3 in brain tissue other than β-amyloid by Western blot analysis.
Specifically, cortical and hippocampal tissues were obtained from experimental animals sacrificed after experiments, and the tissues were lysed and subjected to Western blot analysis in the same manner as Experimental example 3, using antibodies that specifically bind to phosphorylated tau S214 (P-Tau S214), phosphorylated tau T205 (P-Tau T205), unphosphorylated tau, p62, LC3, and β-amyloid (APP), respectively.

[7] = Body weight change in ALS model animals; type: in vivo; conditions: G93A-SOD1 mice, 40 mg/kg SC five days per week from age 112 to 200 days
Method: (§2) To determine whether the peptide according to one embodiment of the present invention has therapeutic effects on amyotrophic lateral sclerosis (ALS) in vivo, the present inventors administered the peptide according to one embodiment of the present invention (ZC311) to an amyotrophic lateral sclerosis model animal (G93A-SOD1) at 40 mg/kg by subcutaneous (SC) injection repeatedly five days per week (Monday through Friday) from the age of 112 days to 200 days.
The present inventors measured changes in body weight over time during the behavioral analysis of Experimental example 8-1 above.

[8] = tested on: amyotrophic lateral sclerosis model animal (G93A-SOD1); experiment: Survival rate of ALS model animals; type: in vivo; conditions: G93A-SOD1 mice, 40 mg/kg SC five days per week from age 112 days; untreated model 162 days
Method: as §2
In contrast, ALS model mice treated with the peptide according to one embodiment of the present invention began to die at a similar time to the control group, but the time to death was delayed (50% survival 183 days).

β-amyloid aggregates = experiment: Thioflavin S and Congo red staining of β-amyloid plaques in brain sections of Alzheimer's model animals; type: in vivo; conditions: 5XFAD mice, cortex and hippocampus, 20 mg/kg IP, 25 weeks, vs model animals given PBS alone
Text: To determine whether the peptides according to one embodiment of the present invention could inhibit the accumulation of β-amyloid aggregates in the brain as a pathologic phenomenon of Alzheimer's disease, even under realistic in vivo conditions as shown by the results of Experiments 4 and 5 above, brain tissue sections obtained from experimental animals sacrificed after the peptide administration for 25 weeks were stained with thioflavin S and Congo red that have selective affinity for β-amyloid plaques.
Specifically, for thioflavin S staining, the brain of a dementia model mouse was harvested and freeze-dried in O.C.T compound (Sakura finetec, USA), and brain sections were obtained by coronal sectioning and mounted on glass slides coated with 0.1% poly-L-lysine. The obtained brain sections were washed in 70% ethanol for 1 min, then in 80% ethanol for 1 min again, and stained in 1% thiflavin S solution (MilliporeSigma, USA) for 15 min. […] Finally, the β-amyloid senile spots were observed through fluorescence microscopy.
Congo red staining to identify amyloid was performed as follows. […] The amyloid senile spots were observed under a fluorescence microscope, and the number of stained senile spots and amyloid per brain section was counted and quantified with a statistical program (Graph prism).

[9] = tested on: amyotrophic lateral sclerosis model animal (G93A-SOD1); experiment: Rotarod test in ALS model animals; type: in vivo; conditions: G93A-SOD1 mice, 40 mg/kg SC five days per week from age 112 to 200 days, 15 rpm, 300 seconds
Method: as §2
The animals were then subjected to a rotarod test twice a week at intervals of up to 3-4 days to evaluate their motor function. The rotarod test was performed using a rotarod treadmill (Cat. No. DJ-345, Dae Jong, Seoul, Korea) to evaluate impaired coordination, the main symptom of basal ganglia lesion disease, by measuring the time for the subject animals (n=11, 8, and 10) to fall off the rod during three repetitions of 300 seconds at a constant speed of 15 rpm. 300 seconds was set to be a perfect score, and the highest score was used.

Molecule | mutant tau protein aggregates [1] | SOD1 protein aggregates [2] | α-synuclein protein aggregates [3] | mutant huntingtin protein aggregates [4] | number and size of LC3 spots [5] | expression of aggregate-forming proteins in the cerebral cortex [6] | expression of aggregate-forming proteins in the hippocampus [6] | progressive body weight loss over time [7] | 50% survival [8] | accumulation of β-amyloid aggregates (plaques, thioflavin S and Congo red) (β-amyloid aggregates) | development of ataxia (rotarod) [9]
CO/C1=C\C(C)=C\[C@@H](C)[C@@H](O)[C@@H](C)C/C(C)=C/C=C/[C@H](OC)[C@@H]([C@@H](C)[C@@H](O)[C@H](C)[C@@]2(O)C[C@@H](O)[C@H](C)[C@@H](C(C)C)O2)OC1=O [bafilomycin, Bafilomycin A-1] | increased | increased | increased | increased | significantly increased | – | – | – | – | – | –
ZC311 ([dH]G[dV][dS]GHGQ[dH]G[dV][dH]G; not fully specified (residues 6, 8)) | – | – | – | – | – | significantly lower | significantly lower | not altered | 183 days | significantly inhibited | delayed
